Reference: ChEMBL document CHEMBL5226321, “Ivermectin: A Promising Therapeutic for Fighting Malaria. Current Status and Perspective” (J Med Chem, 2021)
Several values for one entry are separate records, joined by “and”; a condition that tells them apart may be missing. Equal entries are not always repeated.

Tests used:
[1] = tested on: Anopheles stephensi; assay: Insecticidal in Anopheles stephensi larvae measured after 48 hrs; assay type: functional
[2] = tested on: Anopheles sp.; assay: Insecticidal in Anopheles sp. assessed as mortality rate fed with blood of compound treated dog at 10 to 2500 microg/kg observed after 48 hrs relative to control; assay type: functional, organism-based; conditions: dose 10-2500 µg/kg
[3] = tested on: Aedes aegypti; assay: Insecticidal in Aedes aegypti assessed as lethal concentration membrane-fed with compound treated blood; assay type: functional, organism-based
[4] = tested on: Anopheles sp.; assay: Insecticidal in Anopheles sp. assessed as lethal concentration membrane-fed with compound treated blood; assay type: functional, organism-based
[5] = tested on: Anopheles stephensi; assay: Insecticidal in Anopheles stephensi assessed as lethal concentration membrane-fed with compound treated blood; assay type: functional, organism-based
[6] = tested on: Anopheles stephensi; assay: Insecticidal in Anopheles stephensi assessed as mortality rate fed with blood of compound treated rabbits at 0.34 mg/kg, sc 4 to 6 days post-injection relative to control; assay type: functional, organism-based; conditions: time 4-6 day
[7] = tested on: Anopheles sp.; assay: Insecticidal in Anopheles sp. assessed as percentage survival fed with blood of compound treated human at 250 microg/kg administered once and observed for 3 days relative to control; assay type: functional, organism-based; conditions: dose 250.0 µg/kg, time 3.0 day
[8] = tested on: Anopheles sp.; assay: Insecticidal in Anopheles sp. assessed as mortality rate fed with blood of compound treated human at 200 microg/kg administered once caught on day 2 after mass drug administration observed within 5 days relative to control; assay type: functional, organism-based; conditions: dose 200.0 µg/kg, time 5.0 day
[9] = tested on: Anopheles gambiae; assay: Insecticidal in Anopheles gambiae G3 assessed as reduction in survivorship fed with blood of compound treated human at 150 microg/kg administered once; assay type: functional, organism-based; conditions: dose 150.0 µg/kg
[10] = tested on: Anopheles gambiae; assay: Insecticidal in Anopheles gambiae assessed as mortality fed with compound treated bovine blood at 600 microg/kg observed for 10 days; assay type: functional, organism-based; conditions: dose 600.0 µg/kg, time 10.0 day
[11] = tested on: Anopheles sp.; assay: Insecticidal in Anopheles sp. assessed as mortality rate membrane-fed with blood of compound treated mouse at 600 microg/kg observed within 6 days relative to control; assay type: functional, organism-based; conditions: dose 600.0 µg/kg, time 6.0 day
[12] = tested on: Plasmodium vivax; assay: Antimalarial activity against Plasmodium vivax assessed as reduction in infection in Anopheles sp. mosquito midgut fed with blood isolated from compound treated parasite-infected human at 40 ng/ml observed after 7 days relative to control; assay type: functional, organism-based; conditions: time 7.0 day
[13] = tested on: Plasmodium vivax; assay: Antimalarial activity against Plasmodium vivax assessed as reduction in […] in Anopheles darlingi mosquito fed with blood containing plasma isolated from compound treated human observed after 4 days relative to control; assay type: functional, organism-based; conditions: time 4.0 day, dose or concentration not given here
[14] = tested on: Anopheles darlingi; assay: Insecticidal in Anopheles darlingi infected with Plasmodium vivax assessed as mortality rate midgut fed with blood isolated from compound treated parasite-infected human observed after 7 days relative to control; assay type: functional, organism-based; conditions: time 7.0 day
[15] = tested on: Anopheles sp.; assay: Insecticidal in Anopheles sp. infected with Plasmodium vivax assessed as mortality rate fed with blood isolated from compound treated human at 200 microg/kg observed for 5 days; assay type: functional, organism-based; conditions: dose 200.0 µg/kg, time 5.0 day
[16] = tested on: Anopheles sp.; assay: In vivo Insecticidal in Anopheles sp. assessed as lethality membrane-fed with compound treated human blood at 400 microg/kg per day in presence of combination of 120 mg dihydroartemisinin, 960 mg piperaquine and 30 mg primaquine observed after 7 days; assay type: functional, organism-based; conditions: dose 400.0 µg/kg, time 7.0 day
[17] = tested on: Anopheles sp.; assay: Insecticidal in Anopheles sp. assessed as mortality rate fed with blood of compound treated human at 250 microg/kg administered once and observed for 3 days relative to control; assay type: functional, organism-based; conditions: dose 250.0 µg/kg, time 3.0 day
[18] = tested on: Anopheles sp.; assay: Insecticidal in Anopheles sp. assessed as mortality rate fed with compound treated human blood at 400 microg/kg observed in 48 hrs relative to control; assay type: functional, organism-based; conditions: dose 400.0 µg/kg
[19] = tested on: Anopheles sp.; assay: Insecticidal in Anopheles sp. assessed as mortality rate fed with blood of compound treated human at 200 microg/kg administered once caught on day 3 after mass drug administration observed within 5 days relative to control; assay type: functional, organism-based; conditions: dose 200.0 µg/kg, time 5.0 day
[20] = tested on: Anopheles minimus; assay: In vitro Insecticidal in Anopheles minimus assessed as lethality membrane-fed with compound treated human blood at 400 microg/kg per day in presence of combination of 120 mg dihydroartemisinin, 960 mg piperaquine and 30 mg primaquine observed after 7 days; assay type: functional, organism-based; conditions: dose 400.0 µg/kg, time 7.0 day
[21] = tested on: Anopheles minimus; assay: Insecticidal in Anopheles minimus assessed as lethal concentration membrane-fed with compound treated human blood at 200 microg/kg observed for 7 days; assay type: functional, organism-based; conditions: dose 200.0 µg/kg, time 7.0 day
[22] = tested on: Anopheles arabiensis; assay: Insecticidal in Anopheles arabiensis assessed as mean survival fed with blood of compound treated human at 12 mg, administered as a single dose observed at 2 days post treatment; assay type: functional, organism-based; conditions: time 2.0 day
[23] = tested on: Anopheles sp.; assay: Insecticidal in Anopheles sp. infected with Plasmodium falciparum gametocytes assessed as mortality fed with compound treated bovine blood at 200 microg/kg observed within 5.5 days feeding at 15 days post treatment relative to control; assay type: functional, organism-based; conditions: dose 200.0 µg/kg, time 5.5 day
[24] = tested on: Anopheles sp.; assay: Insecticidal in Anopheles sp. assessed as mortality fed with compound treated pig blood at 600 microg/kg observed within 2 to 4 days feeding upto 8 days after drug administration relative to control; assay type: functional, organism-based; conditions: dose 600.0 µg/kg, time 2-4 day
[25] = tested on: Anopheles sp.; assay: Insecticidal in Anopheles sp. assessed as mortality fed with treated bovine blood containing 1% of compound observed within 4 days after a blood meal on 7 days post treatment relative to control; assay type: functional, organism-based; conditions: time 4.0 day
[26] = tested on: Anopheles sp.; assay: Insecticidal in Anopheles sp. infected with Plasmodium falciparum gametocytes assessed as reduction in survival fed with compound treated bovine blood at 200 microg/kg feeding at 2 days after injection relative to control; assay type: functional, organism-based; conditions: dose 200.0 µg/kg
[27] = tested on: Anopheles sp.; assay: Insecticidal in Anopheles sp. infected with Plasmodium falciparum gametocytes assessed as reduction in survival fed with compound treated bovine blood at 200 microg/kg feeding at 15 days after injection relative to control; assay type: functional, organism-based; conditions: dose 200.0 µg/kg
[28] = tested on: Anopheles sp.; assay: Insecticidal in Anopheles sp. infected with Plasmodium falciparum gametocytes assessed as reduction in survival fed with compound treated bovine blood at 200 microg/kg feeding at 28 days after injection relative to control; assay type: functional, organism-based; conditions: dose 200.0 µg/kg
[29] = tested on: Anopheles sp.; assay: Insecticidal in Anopheles sp. infected with Plasmodium falciparum gametocytes assessed as survival fed with compound treated bovine blood at 200 microg/kg feeding at 2 weeks after injection; assay type: functional, organism-based; conditions: dose 200.0 µg/kg
[30] = tested on: Anopheles sp.; assay: Insecticidal in Anopheles sp. infected with Plasmodium falciparum gametocytes assessed as reduction in fecundity fed with compound treated bovine blood at 200 microg/kg feeding at 28 days after injection relative to control; assay type: functional, organism-based; parameters: scale not given: the % may be the effect or the level left; conditions: dose 200.0 µg/kg
[31] = tested on: Anopheles sp.; assay: Insecticidal in Anopheles sp. assessed as mean plasma concentration fed with compound treated pig blood administered as a single dose at 600 microg/kg at 22 day post treatment; assay type: functional, organism-based; conditions: dose 600.0 µg/kg
[32] = tested on: Anopheles sp.; assay: Insecticidal in Anopheles sp. assessed as lethal concentration fed with compound treated human blood administered as a single dose at 10 microg/ml fed at 4 hrs post treatment; assay type: functional, organism-based; conditions: dose 10.0 µg/ml
[33] = tested on: Anopheles sp.; assay: Insecticidal in Anopheles sp. assessed as mortality relative to control; assay type: functional, organism-based
[34] = tested on: Anopheles gambiae; assay: Insecticidal in Anopheles gambiae assessed as lethal concentration membrane-fed with compound treated human blood at 200 microg/kg observed after 48 to 72 hrs; assay type: functional, organism-based; conditions: dose 200.0 µg/kg, time 48-72 hrs
[35] = tested on: Plasmodium berghei; assay: In vivo antimalarial activity against liver stage Plasmodium berghei infected in mouse assessed as inhibition of liver infection at 10 mg/kg measured 44 to 46 hrs post-infection by bioluminescence assay relative to control; assay type: functional, organism-based; conditions: time 44-46 hrs

## IVERMECTIN
[1]
  LC50: 5.85 ppb
[2]
  mortality: 90%
[3]
  MLC: 2.5 ppm
[4]
  MLC: 50 ppm
[5]
  MLC: 1 ppm
[6]
  mortality: 93%
[7]
  Survival: 20%
[8]
  mortality: 80%
[9]
  LC50: 0.0224 µg/mL
[10]
  mortality: 90%
[11]
  mortality: 44%
[12]
  inhibition: 61.3%
[13]
  inhibition: 99.9%
[14]
  mortality: 97.1%
[15]
  mortality: 50%
[16]
  LC50: 2.86 ng/mL
[17]
  mortality: 80%
[18]
  mortality: 69%
[19]
  mortality: 68%
[20]
  LC50: 0.0147 µg/mL
[21]
  LC50: 0.0264 µg/mL
[22]
  Survival: 2.1 days
[23]
  mortality: 100%
[24]
  mortality: 100%
[25]
  mortality: 80%
[26]
  Survival: 86%
[27]
  Survival: 77%
[28]
  Survival: 23%
[29]
  Survival: 2 days
[30]
  Activity: 20%
[31]
  Cp: 1.4 ng/mL
[32]
  LC5: 18.3 ng/mL
[33]
  mortality: 90%
[34]
  LC50: 10 ng/mL and 7 ng/mL
[35]
  inhibition: 80%
